Experimental data: patent US8637685B2, “Schweinfurthin analogues” (University of Iowa Research Foundation, priority 2008, dated 2014)

How the values were obtained:
[1] = tested on: SF-295 vs. A549 cell lines; assay: Test C three pronged testing scheme for schweinfurthin-like activity; format: cell-based, human; details: for schweinfurthin-like activity: three pronged scheme: MTT SF-295, MTT A549, morphology
Text: (§1) The National Cancer Institute 60 human tumor cell line anti-cancer assay has been used for indicating the schweinfurthin-like activity of various analogues. Additionally, a three pronged approach that allows a more rapid turn around can be used. This three pronged testing scheme involves 1) MTT assay in schweinfurthin sensitive human glioma derived SF-295 cell line; 2) MTT assay in the schweinfurthin resistant human non-small cell lung cancer derived cell line A549; and 3) microscopic observation of cell morphology changes at 24 and 48 hours. Compounds displaying schweinfurthin-like activity show a dramatic change in cell morphology at concentrations consistent with anti-cancer activity. This three pronged testing scheme is a very simple method that has successfully identified compounds with and without schweinfurthin-like activity. Accordingly, in one embodiment the invention provides a method for identifying a compound with schweinfurthin-like activity comprising, subjecting the compound to 1) an MTT assay in a schweinfurthin sensitive human glioma derived SF-295 cell line; 2) an MTT assay in the schweinfurthin resistant human non-small cell lung cancer derived cell line A549; and 3) a microscopic observation of cell morphology changes at one or more preselected time points (e.g. at about 24 or 48 hours).

[2] = Compound stability (no method given); format: physicochemical
SF-295 cell line = assay: Test C MTT assay in schweinfurthin sensitive SF-295 cell line; format: cell-based, human
Text: as §1

[3] = Fluorescence properties of target compounds (Table 1); format: physicochemical; details: for Absorbtion Maximum / Emission Maximum / Extinction Coefficient: Concentration 50 uM; for Extinction Coefficient: in M-1 cm-1 (unit assumed)
Text: This shift to the green region for the fluorescence emission allows cellular studies on these compounds without any interference from autofluroescence.

A549 cell line = assay: Test C MTT assay in schweinfurthin resistant A549 cell line; format: cell-based, human; details: A549 lung cancer line
Text: as §1

A-549 cells = assay: Test A cellular morphology (phalloidin/DAPI staining), A-549; format: cell-based, human
Protocol: (§2) Cell Culture—SF-295 cells were maintained in RPMI 1640 supplemented with 10% fetal calf serum, and penstreptamycin. A-549 cells were maintained in F-12 media with 10% fetal calf serum and penstreptamycin. Both cell lines were incubated at 37° C. and 5% CO2.
(§3) Cellular Morphology—Cells were plated on sterilized coverslips in 6-well plates and allowed to reach 65% confluency before treatment with indicated compounds. At the conclusion of the treatment interval, cells were rinsed and fixed with 3.7% formaldehyde for 15 minutes. After subsequent rinses in PBS, cells were permeabilized with 0.2% triton X-100 for 4 minutes and rinsed in PBS. Cells were then incubated with 1% BSA for 30 minutes before incubation with phalloidin stain (Molecular Probes, Eugene, Oreg.) for 20 minutes. At the completion of staining interval, cells were rinsed and mounted using Vectashield mounting media containing DAPI (Vector laboratories, Inc., Burlingame, Calif.). Slides were imaged using a Bio-Rad Multi-photon microscope and processed using Image-J software.

SF-295 cells = assay: Test A cellular morphology (phalloidin/DAPI staining), SF-295; format: cell-based, human
Protocol: as §2, §3

With `COc1cc(/C=C/c2cc3c(c(OC)c2)O[C@]2(C)C[C@@H](O)[C@@H](O)C(C)(C)[C@H]2C3)cc(O)c1/C=C/c1ccc(N)cc1` [Compound 237] as the compound, how does the “potency relative to 3-deoxyschweinfurthin B” value ([1]; cell line not specified) read?
The value was “neither of the amine substituted analogues (227 and 237) were more potent than 3-deoxyschweinfurthin B”.

And the “activity relative to 3-deoxy compound 227” value ([1]; dihydroxylated A-ring vs. 3-deoxy)?
Its value is “not significantly more active than the 3-deoxy compound 227”.

And the schweinfurthin-like activity [1]?
The schweinfurthin-like activity was “did show all of the hall marks of schweinfurthin like activity”.

Which results are given for `COc1cc(/C=C/c2cc3c(c(OC)c2)O[C@]2(C)CC[C@@H](O)C(C)(C)[C@H]2C3)cc(O)c1/C=C/c1ccc([N+](=O)[O-])cc1` [Compound 225]?
stability relative to the parent resorcinol [2]: much improved stability; activity relative to the parent resorcinol (SF-295 cell line; assay not specified): only slightly diminished activity; schweinfurthin-like activity [1]: displayed activity as expected; stokes shift compared with amine compounds 227, 232 and 237 [3]: larger stokes shifts than the amine compounds; Absorbtion Maximum [3]: 429; Emission Maximum [3]: 557; Extinction Coefficient [3]: 17902

With `COc1cc(/C=C/c2cc(O)c(/C=C/c3ccc([N+](=O)[O-])cc3)c(O)c2)cc2c1O[C@]1(C)CC[C@@H](O)C(C)(C)[C@H]1C2` [Compound 219] as the compound, how does the “potency relative to 3-deoxyschweinfurthin B” value (A549 cell line) read?
Its value is “almost an order of magnitude more potent than 3-deoxyschweinfurthin B”.

And the “activity relative to standard 3-deoxyschweinfurthin B” value (SF-295 cell line; SF-295 cell line)?
Its value is “almost identical activity to the standard 3-deoxyschweinfurthin B”.

And the “potency rank among compounds tested” value (SF-295 cell line; Test C scheme)?
The value was “most potent of these compounds”.

What about the schweinfurthin-like activity [1] of the same compound?
The schweinfurthin-like activity was “still shows the significant drop in activity in the A549 line vs. the SF-295 line”.

What about the “stokes shift compared with amine compounds 227, 232 and 237” value [3] of the same compound?
Its value is “larger stokes shifts than the amine compounds”.

What about the “Absorbtion Maximum” value [3] of the same compound?
The value was 426.

What about the “Emission Maximum” value [3] of the same compound?
The value was 593.

What about the “Extinction Coefficient” value [3] of the same compound?
The value was 26500.

Which “stokes shift compared with amine compounds 227, 232 and 237” value [3] does the source give for `COc1cc(/C=C/c2cc3c(c(OC)c2)O[C@]2(C)C[C@@H](O)[C@@H](O)C(C)(C)[C@H]2C3)cc(O)c1/C=C/c1ccc([N+](=O)[O-])cc1` [Compound 235] here?
Its value is “larger stokes shifts than the amine compounds”.

What does the source list for `C[C@@H](N)[C@H]1CC[C@H](C(=O)Nc2ccncc2)CC1` [Compound Y-27632]?
cell morphology (A-549 cells; 10 μM): induces ruffled F-actin at the edges of the A-549 cells; cell morphology (SF-295 cells; 10 μM): caused jagged F-actin at the periphery and long slender projections to form

What does the source list for `COc1cc(C=Cc2cc(O)c(CC=C(C)CCC=C(C)C)c(O)c2)cc2c1OC1(C)CCC(O)C(C)(C)C1C2` (stereo not shown) [3-deoxyschweinfurthin B]?
cell morphology (A-549 cells; 500 nM, 24 hours or 48 hours): does not induce a morphologic change; cell morphology (SF-295 cells; 500 nM, 24 hours): morphologic characteristics similar to control cells; cell morphology (SF-295 cells; 500 nM, 48 hours): characteristic changes in cell morphology; cell morphology changes induced by schweinfurthins (SF-295 cells; time points beyond 24 hours): a decrease in cell area and a reduction in F-actin
